Reference: US20260226105A1, “Antimicrobial And Antibiofilm Peptides Sequences With Metal-Binding Motifs” (The Trustee of the University of Pennsylvania, priority 2021, published 2026)
Values joined by “and” are separate entries in the source; they are usually repeats but may differ in a detail not shown here. Identical values can stand only once. Like-named read-outs stand apart in the source and are kept apart here. Ends that are not written are not given here.

Key:
E. coli KpC+1812446 = format: in vivo, mice; conditions: for in vivo toxicity: infected Balb/C mice, 5 and 10 mg·Kg^−1
Method: Male Balb/C (18-20 g) mice from the Biotério Central do Campus da USP in Ribeirão Preto, São Paulo, were kept in groups of 5 per cage at 22° C. with normal cycles of light and free access to food and water. The care and use of the animals were approved by the Ethics Committee of Universidade Católica Dom Bosco number 019/2016. We assessed the ability of the peptides to protect the mice from lethal systemic infections induced with E. coli KpC+1812446. The mice (n=40) were randomly placed into eight groups of five mice each, and each mouse was injected intraperitoneally with 200 μL of saline solution containing 2×10^7 CFU of E. coli KpC+1812446. Intraperitoneal treatment with 5 or 10 mg·Kg^−1 of each peptide was initiated after one hour of infection and repeated at 24 h intervals for seven days^61. Gentamicin at 10 mg·Kg^−1 of body weight and normal saline were used as positive and negative controls, respectively.

E. coli (ATCC 25922) [1] = conditions: for MIC in Cu(II) supplemented medium: Cu(II) supplemented medium (0.25 μM); for MIC: MH broth, 12 h, 37° C.
E. coli (KpC+ 1812446) = conditions: MH broth, 12 h, 37° C.
E. coli (KpC+ 2101123) = conditions: for MIC in Cu(II) supplemented medium: Cu(II) supplemented medium (0.25 μM); for MIC: MH broth, 12 h, 37° C.
[2] = tested on: K. pneumoniae (KpC+ 1825971); conditions: for MIC in Cu(II) supplemented medium: Cu(II) supplemented medium (0.25 μM); for MIC: MH broth, 12 h, 37° C.
[3] = tested on: K. pneumoniae (ATCC 13883); conditions: MH broth, 12 h, 37° C.
[4] = tested on: P. aeruginosa (ATCC 27853); conditions: MH broth, 12 h, 37° C.
MRSA (3730529) = conditions: MH broth, 12 h, 37° C.
S. aureus (ATCC 25923) = conditions: for MIC in Cu(II) supplemented medium: Cu(II) supplemented medium (0.25 μM); for MIC: MH broth, 12 h, 37° C.
E. coli MG1655 = conditions: for MIC, TETA: cell-impermeable Cu(II) chelator triethylenetetramine (TETA) 200 μM; for MIC, TTM: cell-permeable Cu(II) chelator tetrathiolmolybdate (TTM) 200 μM
E. coli (KpC1812446) [5] = conditions: Table 3, agent alone
E. coli (ATCC25922) = conditions: Table 3, agent alone
[6] = tested on: K. pneumoniae (ATCC13883); conditions: Table 3, agent alone
[7] = tested on: K. pneumoniae (KpC1825971); conditions: Table 3, agent alone
E. coli (KpC1812446) [8] = conditions: agent alone, BM2 minimal medium
E. coli (ATCC 25922) [9] = conditions: agent alone, BM2 minimal medium
[10] = tested on: K. pneumoniae (ATCC13883); conditions: agent alone, BM2 minimal medium
[11] = tested on: K. pneumoniae (KpC1825971); conditions: agent alone, BM2 minimal medium
[12] = tested on: E. coli (KpC+1812446) planktonic cells; conditions: Planktonic
[13] = tested on: E. coli (KpC+1812446) biofilm; conditions: Biofilm

GGHKWKLFKKIGAVLKVL [GGH-CM15]
mouse deaths (E. coli KpC+1812446; 5 and 10 mg·Kg^−1 intraperitoneal): all the mice died on the first day | in vivo toxicity (E. coli KpC+1812446): did not decrease the toxicity of CM15 | MIC in Cu(II) supplemented medium (E. coli (ATCC 25922) [1]): 2 µM | MIC (E. coli (ATCC 25922) [1]): 2 µM | MIC (E. coli (KpC+ 1812446)): 2 µM | MIC in Cu(II) supplemented medium (E. coli (KpC+ 2101123)): 2 µM | MIC (E. coli (KpC+ 2101123)): 2 µM | MIC in Cu(II) supplemented medium [2]: 2 µM | MIC [2]: 2 µM | MIC [3]: 1 µM | MIC [4]: 1 µM | MIC (MRSA (3730529)): 2 µM | MIC in Cu(II) supplemented medium (S. aureus (ATCC 25923)): 1 µM | MIC (S. aureus (ATCC 25923)): 1 µM | MIC, TETA (E. coli MG1655): 2 µM | MIC, TTM (E. coli MG1655): 32 µM | MIC, No Chelator (E. coli MG1655): 1 µM | MIC (E. coli (KpC1812446) [5]): 8 µM | MIC (E. coli (ATCC25922)): 4 µM | MIC [6]: >32 µM | MIC [7]: 8 µM | MBIC (E. coli (KpC1812446) [8]): 4 µM | MBIC (E. coli (ATCC 25922) [9]): 4 µM | MBIC [10]: >32 µM | MBIC [11]: 4 µM | FICI ([12]; peptide + AmP): 1.52 and 1.5 | FICI ([12]; peptide + CHL): 0.5 and 0.5008 | FICI ([12]; peptide + MER): 0.52 | FICI ([12]; peptide + STR): 1.5 | FICI ([12]; peptide + TRI): 0.5 | FICI ([13]; peptide + AmP): 2.0 | FICI ([13]; peptide + CHL): 2.0 | FICI ([13]; peptide + MER): 0.27 | FICI ([13]; peptide + STR): 0.78 and 0.75 | FICI ([13]; peptide + TRI): 1.5

VIHKWKLFKKIGAVLKVL [VIH-CM15]
in vivo toxicity (E. coli KpC+1812446): decreased the toxicity of CM15 | MIC in Cu(II) supplemented medium (E. coli (ATCC 25922) [1]): 1 µM | MIC (E. coli (ATCC 25922) [1]): 1 µM | MIC (E. coli (KpC+ 1812446)): 4 µM | MIC in Cu(II) supplemented medium (E. coli (KpC+ 2101123)): 2 µM | MIC (E. coli (KpC+ 2101123)): 2 µM | MIC in Cu(II) supplemented medium [2]: 1 µM | MIC [2]: 1 µM | MIC [3]: 1 µM | MIC [4]: 4 µM | MIC (MRSA (3730529)): 2 µM | MIC in Cu(II) supplemented medium (S. aureus (ATCC 25923)): 1 µM | MIC (S. aureus (ATCC 25923)): 1 µM | MIC, TETA (E. coli MG1655): 1 µM | MIC, TTM (E. coli MG1655): 32 µM | MIC, No Chelator (E. coli MG1655): 0.5 µM | MIC (E. coli (KpC1812446) [5]): 4 µM | MIC (E. coli (ATCC25922)): 4 µM | MIC [6]: 30 µM | MIC [7]: 8 µM | MBIC (E. coli (KpC1812446) [8]): 8 µM | MBIC (E. coli (ATCC 25922) [9]): 4 µM | MBIC [10]: >30 µM | MBIC [11]: 4 µM | FICI ([12]; peptide + AmP): 2.0 | FICI ([12]; peptide + CHL): 1.0 and 1.002 | FICI ([12]; peptide + MER): 1.0 | FICI ([12]; peptide + STR): 1.29 | FICI ([12]; peptide + TRI): 1.0 | FICI ([13]; peptide + AmP): 1.5 | FICI ([13]; peptide + CHL): 1.38 | FICI ([13]; peptide + MER): 0.185 and 0.19 | FICI ([13]; peptide + STR): 1.0 | FICI ([13]; peptide + TRI): 1.0
